Measurements: US9376406B2, “uPAR-uPA interaction inhibitors and methods for treating cancer” (Indiana University Research and Technology Corporation, priority 2011, dated 2016)
Where two headings read alike, the source gives them in different places.

Assays:
[1] = tested on: integrins (phospho p44/42 MAPK, p44/42 MAPK, pSrc Y416, Src, pFAK Y397, FAK); assay: Integrin signaling by gel electrophoresis; type: cell-based
[2] = cellular studies, cytotoxicity of IPR-803; type: cell-based
[3] = in vivo pharmacokinetics in mice
Description: in vivo Pharmacokinetics of IPR-803 in mice. Compounds are administered to mice via a single dose of 200 mg/kg by oral gavage using a formulation of saline. Blood ([…]) is taken from the mice at their tails at time intervals of 1, 2, 4, 6, 8 and 10 hours (three time points from each of the 18 mice (21)) post injection. Blood plasma samples are prepared by centrifugation for quantification and HPLC-MS/MS analysis. […] The stability of the compounds in plasma is reflected by the half-life (t1/2). To gain insight into its absorption following oral dosing, intravenous bioavailability of compounds described herein is determined. Compounds are injected intravenously (IV) into the tail vein. Blood plasma samples are prepared from collected blood samples at 5, 10, 20, 45 and 120 minutes (three mice per time point). […] The levels of the compound in tumor tissue remained high even after 10 hours.

TMD-231 cells = assay: xenograft mice model of breast cancer metastasis; type: in vivo
Description: in vivo Efficacy of IPR-803 in xenograft mice model of cancer. Breast Cancer Metastasis. The Example is performed as described in Wang et al. (2011) Virtual Screening Targeting the Urokinase Receptor, Biochemical and Cell-Based Studies, Synthesis, Pharmacokinetic Characterization, and Effect on Breast Tumor Metastasis. J Med Chem In press, the disclosure of which is incorporated herein in its entirety. Briefly, TMD-231 cells are inoculated into the mammary fat pad of female NOD/SCID mice. Dosing is initiated at day 15 post implantation. Animals are randomized and treated with vehicle or with test compound by daily oral gavage at a dose of 200 mg/kg.
While uPAR's effects on growth are known to be minimal, its role in promoting invasion and metastasis is widely established. To assess the effect of IPR-803 on metastasis, control and experimental animals were sacrificed and organs (lungs) were removed and evaluated for the presence of tumors. The number and size of metastasis in two to five fields per sample were calculated. A score of 4+ was given to a sample with highest metastasis index and relative metastasis in other samples are calculated (i.e., 1+, 2+, 3+) by a sample-blinded pathologist. […] For example, 11 out of 13 untreated mice developed severe (score=3) or marked (score=4) metastasis to the lung. This is compared to only 4 in the treated mice. Among the treated mice, 4 developed moderate metastasis, and another four were scored at 1 or lower, showing mild metastasis to the lungs.
IPR-803 was administered at 200 mg/kg p.o. to test animals, and conventional evaluation of cancer progression and survival measurements were made. […] It is observed that there is a greater percentage of mild an moderate outcomes in the treatment group compared to the untreated group showing a majority of severe outcomes. In addition, whole animal toxicity was evaluated by periodic measurement of weight change in test animals.

uPAR = molecular target: T1, uPAR (Homo sapiens, UniProt Q03405); assay: Fluorescence polarization, direct binding to uPAR; conditions: excitation 530 nm, emission 600 nm
T1 construct: uPAR comprising amino acids 1-277 was expressed in Drosophila S2 cells; made in house; host or cells: Drosophila S2 cells
Description: Fluorescence polarization in the presence and absence of protein and were measured using identical conditions as described above.
The mP was evaluated in the a presence and absence of competing 10 μM GFD.

[4] = mouse, plasma, po, 200 mg/kg p.o.

T1 sequence (Q03405 23-299): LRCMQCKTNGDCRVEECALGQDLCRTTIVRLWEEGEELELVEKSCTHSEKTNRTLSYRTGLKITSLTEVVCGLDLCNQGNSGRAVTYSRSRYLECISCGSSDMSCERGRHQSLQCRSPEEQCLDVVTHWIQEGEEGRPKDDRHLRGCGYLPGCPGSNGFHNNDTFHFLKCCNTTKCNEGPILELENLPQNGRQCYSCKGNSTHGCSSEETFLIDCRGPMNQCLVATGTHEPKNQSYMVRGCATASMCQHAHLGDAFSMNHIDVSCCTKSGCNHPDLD

O=C(O)c1cccc(Nc2cc(N3CCCCCC3)c3noc4c3c2C(=O)c2ccccc2-4)c1 [IPR-803, 3-((3-(azepan-1-yl)-6-oxo-6H-anthra[1,9-cd]isoxazol-5-yl)amino)benzoic acid]
signaling effect on pathways implicated with growth, such as ERK [1]: does not have a signaling affect | cytotoxicity [2]: not cytotoxic | Cl/F ([3]; 200 mg/kg p.o.): 0.379 L/h | level in the primary tumor ([3]; LC/MS/MS at 1, 2, 4, 6, and 8 hour intervals): ~10 µM | levels of the compound in tumor tissue ([3]; after 10 hours): remained high | bioavailability ([3]; mouse, plasma, oral, 200 mg/kg, estimated from p.o. and IV data): ~4% | AUC(0-inf) [3, 4]: 13700 ng·h/mL | AUC(0-t) [3, 4]: 11300 ng·h/mL | Tmax [3, 4]: 1 h | half-life [3, 4]: 282 min | Cmax ([3]; mouse, plasma, po, 200 mg/kg p.o., read-out: Cmax): 2600 ng/mL | Vd/F ([3]; mouse, plasma, po, 200 mg/kg p.o., read-out: Vdss/F): 2.23 L | Cmax ([3]; mouse, plasma, mice, 200 mg/kg oral gavage, saline, read-out: maximum concentration (Cmax) in plasma): 5 µM | outcome (cancer progression and survival) compared to vehicle (TMD-231 cells; 200 mg/kg p.o., n=15): statistically significant (p<0.013) improvement in outcome | weight change (whole animal toxicity) (TMD-231 cells; 200 mg/kg p.o., n=15, vs vehicle control): No significant weight change | number of mice scored at 1 or lower, mild metastasis to the lungs (TMD-231 cells; treated mice): four | number of mice with moderate metastasis (TMD-231 cells; treated mice): 4 | number of mice with severe (score=3) or marked (score=4) metastasis to the lung (TMD-231 cells; treated mice): 4 | tumor volume (TMD-231 cells; treated mice, 200 mg/kg daily oral gavage, 33 day study): ~693 mm^3 | effects on tumor size (TMD-231 cells; treated vs untreated): ~10% | fluorescence polarization (mP) with increasing uPAR concentration (uPAR): showed a dose response with increasing mP
